Results published in patent US10323045B2, “Thienopyrimidine derivatives as NIK inhibitors” (Janssen Pharmaceutica NV, priority 2014, dated 2019).

Tests used:
[1] = target: Recombinant Human NF-kappaB-inducing Kinase (NIK/MAP3K14) (Homo sapiens, UniProt Q99558); assay: Inhibition of auto-phosphorylation of recombinant human NIK/MAP3K14 (AlphaScreen); format: biochemical; details: GST-tagged NIK/MAP3K14 0.2 nM, 25 microM ATP, 1 h at 25° C.; averaged over all measurements on all batches; read-out: Alpha-Screen IC50
Protocol: Inhibition of Auto-phosphorylation of Recombinant Human NF-kappaB-inducing Kinase (NIK/MAP3K14) Activity (AlphaScreen®)
NIK/MAP3K14 auto-phosphorylation activity was measured using the AlphaScreen® (αscreen) format (Perkin Elmer). All compounds tested were dissolved in dimethyl sulfoxide (DMSO) and further dilutions were made in assay buffer. Final DMSO concentration was 1% (v/v) in assays. Assay buffer was 50 mM Tris pH 7.5 containing 1 mM EGTA (ethylene glycol tetraacetic acid), 1 mM DTT (dithiothreitol), 0.1 mM Na3VO4, 5 mM MgCl2, 0.01% Tween® 20. Assays were carried out in 384 well Alphaplates (Perkin Elmer). Incubations consisted of compound, 25 microM Adenosine-5′-triphosphate (ATP), and 0.2 nM NIK/MAP3K14. Incubations were initiated by addition of GST-tagged NIK/MAP3K14 enzyme, carried out for 1 h at 25° C. and terminated by addition of stop buffer containing anti-phospho-IKK Ser176/180 antibody. Protein A Acceptor and Glutathione-Donor beads were added before reading using an EnVision® Multilabel Plate Reader (Perkin Elmer). Signal obtained in the wells containing blank samples was subtracted from all other wells and IC50's were determined by fitting a sigmoidal curve to % inhibition of control versus Log10 compound concentration.

[2] = system: P-IKKα levels in L363 cells; assay: Effect of compounds on P-IKKα levels in L363 cells; format: cell-based; details: Homo sapiens, L-363; L363 cells with BAFF, 2 hr treatment, P-IKKα by sandwich immuno-assay (Mesoscale); averaged values; read-out: IKKα Cellular IC50
Protocol: Effect of Compounds on P-IKKα Levels in L363 Cells
All compounds tested were dissolved in DMSO and further dilutions were made in culture medium. Final DMSO concentration was 1% (v/v) in cell assays. The human L363 cells (ATCC) were cultured in RPMI 1640 medium supplemented with GlutaMax and 10% fetal calf serum (PAA). Cells were routinely maintained at densities of 0.2×10^6 cells per ml-1×10^6 cells per ml at 37° C. in a humidified 5% C02 atmosphere. Cells were passaged twice a week splitting back to obtain the low density. Cells were seeded in 96 well plates (Nunc 167008) at 2×10^6 per ml media in a volume of 75 μl per well plus 25 μl 1 μg/ml recombinant human B-cell activating factor (BAFF/BLyS/TNFSF13B). Seeded cells were incubated at 37° C. in a humidified 5% CO2 atmosphere for 24 hr. Drugs and/or solvents were added (20 μl) to a final volume of 120 μl. Following 2 hr treatment plates were removed from the incubator and cell lysis was achieved by the addition of 30 μl 5× lysis buffer followed by shaking on a plate shaker at 4° C. for 10 min. At the end of this incubation lysed cells were centrifuged at 800×g for 20 min at 4° C. and the lysate was assessed for P-IKKα levels by sandwich immuno-assay carried out in anti-rabbit antibody coated Mesoscale plates. Within an experiment, the results for each treatment were the mean of 2 replicate wells.
For initial screening purposes, compounds were tested using an 8 point dilution curve (serial 1:3 dilutions). For each experiment, controls (containing MG132 and BAFF but no test drug) and a blank incubation (containing MG132 and BAFF and 10 μM ADS 125117, a test concentration known to give full inhibition) were run in parallel. The blank incubation value was subtracted from all control and sample values. To determine the IC50 a sigmoidal curve was fitted to the plot of % inhibition of control P-IKKα levels versus Log10 compound concentration.

JJN-3 cells = assay: Antiproliferative activity on JJN-3 cells (CellTiter-Glo); format: cell-based; details: Homo sapiens, 72 hr of treatment, averaged values
Protocol: (§1) Determination of Antiproliferative Activity on LP-1, L-363 and JJN-3 Cells
(§2) All compounds tested were dissolved in DMSO and further dilutions were made in culture medium. Final DMSO concentration was 0.3% (v/v) in cell proliferation assays.
(§3) Viability was assessed using CellTiter-Glo cell viability assay kit (Promega). The human LP-1, L-363 and JJN-3 cells (DSMZ) were cultured in RPMI 1640 medium supplemented with 2 mM L-glutamine, and 10% fetal calf serum (PAA). Cells were routinely kept as suspension cells at 37° C. in a humidified 5% C02 atmosphere. Cells were passaged at a seeding density of 0.2×10^6/ml twice a week. Cells were seeded in black tissue culture treated 96-well plates (Perkin Elmer). Densities used for plating ranged from 2,000 to 6,000 cells per well in a total volume of 75 μl medium. After twenty four hours, drugs and/or solvents were added (25 μl) to a final volume of 100 μl. Following 72 hr of treatment plates were removed from the incubator and allowed to equilibrate to room temperature for approx 10 min. 100 μl CellTiter-Glo reagent was added to each well that was then covered (Perkin Elmer Topseal) and shaken on plate shaker for 10 min. Luminescence was measured on a HTS Topcount (Perkin Elmer). Within an experiment, the results for each treatment were the mean of 2 replicate wells.
(§4) For initial screening purposes, compounds were tested using a 9 point dilution curve (serial 1:3 dilutions). For each experiment, controls (containing no drug) and a blank incubation (containing cells read at the time of compound addition) were run in parallel. The blank value was subtracted from all control and sample values. For each sample, the mean value for cell growth (in relative light units) was expressed as a percentage of the mean value for cell growth of the control.

L-363 cells = assay: Antiproliferative activity on L-363 cells (CellTiter-Glo); format: cell-based; details: Homo sapiens, 72 hr of treatment, averaged values
Protocol: as §1, §2, §3, §4

LP-1 cells = assay: Antiproliferative activity on LP-1 cells (CellTiter-Glo); format: cell-based; details: Homo sapiens, 72 hr of treatment, averaged values
Protocol: as §1, §2, §3, §4

Sequence of Recombinant Human NF-kappaB-inducing Kinase (NIK/MAP3K14) (Q99558 whole entry): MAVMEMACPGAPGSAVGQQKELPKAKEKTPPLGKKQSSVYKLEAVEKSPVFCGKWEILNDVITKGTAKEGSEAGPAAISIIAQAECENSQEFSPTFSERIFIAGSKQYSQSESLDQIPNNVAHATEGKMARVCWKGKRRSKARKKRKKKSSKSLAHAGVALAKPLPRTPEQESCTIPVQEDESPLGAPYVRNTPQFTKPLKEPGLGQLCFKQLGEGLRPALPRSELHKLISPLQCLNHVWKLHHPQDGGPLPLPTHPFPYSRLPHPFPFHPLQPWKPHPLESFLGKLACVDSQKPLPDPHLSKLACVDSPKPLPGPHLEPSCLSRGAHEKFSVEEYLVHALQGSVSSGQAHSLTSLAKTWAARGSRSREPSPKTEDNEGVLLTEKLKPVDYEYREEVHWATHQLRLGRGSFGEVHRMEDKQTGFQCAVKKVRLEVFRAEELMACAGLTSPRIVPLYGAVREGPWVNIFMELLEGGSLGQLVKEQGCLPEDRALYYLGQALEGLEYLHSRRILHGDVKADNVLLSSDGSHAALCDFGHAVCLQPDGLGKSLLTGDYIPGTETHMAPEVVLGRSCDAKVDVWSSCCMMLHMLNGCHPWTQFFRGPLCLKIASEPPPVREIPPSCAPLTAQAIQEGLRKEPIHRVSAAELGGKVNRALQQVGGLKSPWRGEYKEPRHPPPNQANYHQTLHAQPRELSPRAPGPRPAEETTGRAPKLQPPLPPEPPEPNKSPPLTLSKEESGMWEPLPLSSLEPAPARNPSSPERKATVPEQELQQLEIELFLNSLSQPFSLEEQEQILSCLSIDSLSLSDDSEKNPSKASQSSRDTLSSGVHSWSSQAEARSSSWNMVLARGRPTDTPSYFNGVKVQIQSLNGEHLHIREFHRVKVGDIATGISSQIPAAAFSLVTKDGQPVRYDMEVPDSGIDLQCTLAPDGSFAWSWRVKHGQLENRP

| IC50 [1] [nM] | IC50 [2] [nM] | Structure (SMILES) | EC50 (JJN-3 cells) [nM] | EC50 (L-363 cells) [nM] | EC50 (LP-1 cells) [nM] |
| --- | --- | --- | --- | --- | --- |
| 9 | 339 | CC(C)(O)C#Cc1cc2c(cn1)c(CCC(C)(C)O)cn2-c1nc(N)nc2ccsc12 [Compound 2] | 1470 | 2800 | 10300 |
| 58 | – | [2H]C([2H])([2H])C(O)(C#Cc1cc2c(-c3nc(N)nc4ccsc34)cn(CC3CCCN3CC)c2cn1)C([2H])([2H])[2H] (centres unmarked) [Compound 13] | 60 | 36 | 75 |
| 38 | – | [2H]C([2H])([2H])C(O)(C#Cc1cc2c(-c3nc(N)nc4ccsc34)cn(C3CCN(CC)C3)c2cn1)C([2H])([2H])[2H] (centres unmarked) [Compound 14] | 145 | 122 | 655 |
| 140 | – | CN1CCC(c2cn(-c3nc(N)nc4ccsc34)c3cc(C#CC(C)(C)O)ncc23)CC1 [Compound 3] | 540 | 258 | 3980 |
| 15 | 104 | CC(C)(O)C#Cc1cc2c(ccn2-c2nc(N)nc3ccsc23)cn1 [Compound 1] | 764 | 979 | 2220 |
| 66 | – | [2H]C([2H])([2H])C(O)(C#Cc1cc2c(-c3nc(N)nc4ccsc34)cn(C3CCCN(CC)C3)c2cn1)C([2H])([2H])[2H] (centres unmarked) [Compound 12] | 289 | 243 | 783 |
| 26 | – | CC(C)c1cn(-c2nc(N)nc3ccsc23)c2cc(C#CC(C)(C)O)ncc12 [Compound 4] | 1740 | 1580 | 3130 |
| 15 | – | COCCCc1cn(-c2nc(N)nc3ccsc23)c2cc(C#CC(C)(C)O)ncc12 [Compound 6] | 580 | 1040 | 3430 |
| 19 | 64 | COCCCn1cc(-c2nc(N)nc3ccsc23)c2cc(C#CC(C)(C)O)ncc21 [Compound 5] | 299 | 395 | 1680 |
| 112 | – | CC(O)(C#Cc1cc2c(-c3nc(N)nc4ccsc34)cn(C3CCN(C4CC4)CC3)c2cn1)C1CC1 (centres unmarked) [Compound 8] | 16 | 4 | 38 |
| 20 | – | [2H]C([2H])([2H])C(O)(C#Cc1cc2c(-c3nc(N)nc4ccsc34)cn(C3CCN(C4CC4)CC3)c2cn1)C([2H])([2H])[2H] [Compound 9] | 24 | 7 | 85 |
| 32 | – | CC(C)(O)C#Cc1cc2c(-c3nc(N)nc4ccsc34)cn(C3COC3)c2cn1 [Compound 7] | 1060 | 696 | > 30000 |
| 52 | – | [2H]C([2H])([2H])C(O)(C#Cc1cc2c(-c3nc(N)nc4ccsc34)cn(C3CN(C4CC4)C3)c2cn1)C([2H])([2H])[2H] [Compound 10] | 494 | 610 | 1480 |
| 26 | – | CC(O)(C#Cc1cc2c(-c3nc(N)nc4ccsc34)cn(C3CN(C4CC4)C3)c2cn1)C1CC1 (single isomer, unassigned) [Compound 11] | 652 | 461 | 918 |
